# According to ChEMBL document CHEMBL1139128, “Structure-activity relationship analysis of a novel necroptosis inhibitor, Necrostatin-5” (Bioorg Med Chem Lett, 2007):
# pEC50: −log10 of the molar value. The source made the active and inactive calls. How the calls were made is not given here.
# System: Jurkat
# Experiment: Inhibition of TNF-alpha-induced necroptosis in FADD-deficient Jurkat T cells
# Assay type: functional, cell-based, Homo sapiens
# Parameters: Activity: concentration or dose not given beside the values
# Details: for pEC50: Jurkat
SMILES,Activity,pEC50 (Homo sapiens),Activity (Homo sapiens)
COc1ccc(-n2c(SCCl)nc3sc4c(c3c2=O)CCCC4)cc1,85%,5.65,
CSc1nc2sc3c(c2c(=O)n1-c1ccc2c(c1)OCO2)CCCC3,,,inactive
COc1ccc(-n2c(SC)nc3sc4c(c3c2=O)CC(C)CC4)cc1OC (centres undefined),,,inactive
CCSc1nc2sc(C)c(C)c2c(=O)n1-c1ccc(OC)cc1,,,inactive
Cc1sc2nc(SCC#N)n(-c3ccc(N(C)C)cc3)c(=O)c2c1C,,,inactive
CSc1nc2sc(C)c(C)c2c(=O)n1-c1ccc(OC(F)(F)F)cc1,,,inactive
Cc1ccc(-n2c(SCC#N)nc3sc4c(c3c2=O)CCCC4)cc1,48.6%,5.74,
COc1ccc(-n2c(SC(C)=O)nc3sc4c(c3c2=O)CCCC4)cc1,,,inactive
Cc1cc(Cl)ccc1-n1c(SCC#N)nc2sc3c(c2c1=O)CCCC3,,,inactive
N#CCSc1nc2sc3c(c2c(=O)n1-c1ccccc1)CCC3,,,inactive
COc1ccc(-n2c(SC)nc3sc(C)c(C)c3c2=O)cc1,,,inactive
N#CCSc1nc2sc3c(c2c(=O)n1-c1ccccc1)CCCCC3,,,inactive
CCc1c(C)sc2nc(SC)n(-c3ccc(OC)cc3)c(=O)c12,,,inactive
Cc1ccc(-n2c(SCC#N)nc3sc4c(c3c2=O)CC(C)CC4)cc1C (centres undefined),38%,4.78,
C=CCSc1nc2sc3c(c2c(=O)n1-c1ccc(OC)cc1)CCC3,,,inactive
COc1ccc(-n2c(SCC#N)nc3sccc3c2=O)cc1,,,inactive
Cc1sc2nc(SCC#N)n(-c3ccc4c(c3)OCCO4)c(=O)c2c1C,100%,6.60,
COc1ccc(-n2c(SCC#N)nc3sc4c(c3c2=O)CCC4)cc1OC,,,inactive
CCCc1sc2nc(SC)n(-c3ccc(OC)cc3)c(=O)c2c1C,,,inactive
COc1ccc(-n2c(SCc3ccccc3)nc3sc4c(c3c2=O)CCC4)cc1,,,inactive
CCc1sc2nc(SC)n(-c3ccc(OC)cc3)c(=O)c2c1C,,,inactive

SMILES,Activity,pEC50 (Homo sapiens),Activity (Homo sapiens)
COc1ccc(-n2c(SCC(C)=O)nc3sc4c(c3c2=O)CCCC4)cc1,,,inactive
CSc1nc2sc3ccccc3c2c(=O)n1-c1ccc(OC(F)(F)F)cc1,,,inactive
N#CCSc1nc2sc3c(c2c(=O)n1-c1ccc(F)cc1)CCCC3,85.1%,6.62,
CCOc1ccc(-n2c(SC)nc3sc4c(c3c2=O)CCC4)cc1,,,inactive
CCCc1sc2nc(SCC)n(-c3ccc(OC)cc3)c(=O)c2c1C,,,inactive
COc1ccc(-n2c(SCCO)nc3sc(C)c(C)c3c2=O)cc1,78%,5.14,
COc1ccc(-n2c(SCC(=O)Nc3ccccc3C(F)(F)F)nc3sc4c(c3c2=O)CCCC4)cc1,,,inactive
COc1ccc(-n2c(SCC#N)nc3sc4c(c3c2=O)CCC4)cc1,100%,6.35,
COC(=O)CSc1nc2sc3c(c2c(=O)n1-c1ccc(OC)cc1)CCCC3,,,inactive
COc1ccc(-n2c(SCC(N)=O)nc3sc4c(c3c2=O)CCCC4)cc1,,,inactive
CCCc1sc2nc(SCC#N)n(-c3ccc(OC)cc3)c(=O)c2c1C,,,inactive
CCCCSc1nc2sc3c(c2c(=O)n1-c1ccc(OC)cc1)CCCC3,,,inactive
COc1ccc(-n2c(SC)nc3sc4c(c3c2=O)CCCC4)c(OC)c1,,,inactive
CCc1cc2c(=O)n(-c3ccc(OC)cc3)c(SCC#N)nc2s1,,,inactive
CSc1nc2sc(C)c(C)c2c(=O)n1-c1ccc(OCc2ccccc2)cc1,,,inactive
COc1ccc(-n2c(SC)nc3sccc3c2=O)cc1,,,inactive
CSc1nc2sc3c(c2c(=O)n1-c1ccc(Cl)cc1C)CCCC3,,,inactive
CSc1nc2sccc2c(=O)n1-c1ccccc1,,,inactive
COc1ccc(-n2c(SC)nc3sc4ccccc4c3c2=O)cc1,77%,6.62,
CSc1nc2sc3c(c2c(=O)n1-c1ccc2c(c1)OCO2)CCC3,,,inactive
